Source: article PMC8482815, “Targeting Host Glycolysis as a Strategy for Antimalarial Development” (Frontiers in Cellular and Infection Microbiology, 2021)
Like-named read-outs stand apart in the source and are kept apart here.

Legend:
[1] = system: P. berghei ANKA; type: in vivo, Swiss Webster mice; details: 2DG 200 mg/kg
Description: (§1) Groups of five female Swiss-Webster mice were injected intraperitoneally (i.p.) with 10^3 luciferase-expressing P. berghei ANKA parasites ([Franke-Fayard et al., 2008]). Forty-eight hours post infection, mice were injected i.p. daily for five days with either 200µL of 2% methylcellulose/0.5% Tween80, 40mg/kg chloroquine, 100mg/kg HEX, 30mg/kg POM-HEX, or 5mg/kg POM-SF. Enolase inhibitors dosing were selected as approximately 3-fold lower than the maximum acutely tolerated dose for each compound by i.p. injection. Day 7 post-infection, mice were injected with 150mg/kg D-luciferin potassium salt in PBS (GoldBio) and imaged on an IVIS 100 and parasite burden assessed (Xenogen LivingImage).
The glucose mimetic 2-DG and enolase inhibitors POM-HEX, and HEX were evaluated in the P. berghei mouse model of cerebral malarial, as previously described ([Wang et al., 2018]). Briefly, in addition to groups of mice (n = 5) dosed as described above for POM-HEX and HEX, 2-DG was administered to an additional group (n = 5) at 200mg/kg twice daily and all were monitored for survival, parasitemia (blood smear Giemsa), and clinical signs of cerebral malaria (paralysis, deviation of the head, ataxia, convulsions, and coma) over 15 days.

[2] = system: P. falciparum strain 3D7; assay: Plasmodium falciparum growth inhibition assay (Picogreen DNA content, three-day incubation); type: cell-based; details: for S.I. + pyruvate (Supplemental Table 4): MetHb EC50 / parasite EC50, with pyruvate; for S.I. - pyruvate (Supplemental Table 4): MetHb EC50 / parasite EC50, without pyruvate; for S.I. Fold Change (Supplemental Table 4): change in S.I. with versus without pyruvate
Description: (§2) Banked blood (Saint Louis Children’s Hospital) and fresh blood [healthy donors] was washed and stored at 50% hematocrit at 4°C up to 1 month past the clinical expiration date and collection date, respectively. Parasite strains provided by the Malaria Research and Reference Reagent Resource Center (MR4) as follows: 3D7 (MRA-102); K1 (MRA-159); D10 (MRA-201); and IPC-5202 (MRA-1240). Unless indicated, erythrocytes were cultured as previously described at 2% hematocrit in complete media (incomplete media supplemented with 27mM sodium bicarbonate, 11mM glucose, 5mM HEPES, 1mM sodium pyruvate, 0.37mM hypoxanthine, 0.01mM thymidine, 10µg/mL gentamicin, and 0.5% Albumax I (Thermo-Fisher) under 5% O2/5% CO2/90% N2 atmosphere at 37°C ([Guggisberg et al., 2014]).
(§3) Asynchronous cultures diluted to 1% parasitemia in 100μL wells were subjected to drug dilutions, solvent controls, and untreated uninfected erythrocyte controls in technical duplicates. Following a three-day incubation, DNA content was quantified using Picogreen (Life Technologies), as previously described ([Corbett et al., 2004]). Half-maximal effective concentrations (EC50) were determined from nonlinear regression of three biological replicates (GraphPad Prism).

[3] = system: human erythrocytes; assay: Detection and quantification of MetHb formation in cultured erythrocytes; type: cell-based; details: MetHb formation, 500 = highest concentration tested
Description: as §2
MetHb was detected by measuring absorbance in the 630-640nm range, which is specific from other hemoglobin subforms (oxyhemoglobin, deoxyhemoglobin, and carboxyhemoglobin). Supernatants were removed and erythrocyte pellets were fully lysed and diluted, as described above. The absorption peak for oxyhemoglobin (575nm) and MetHb (630nm) were measured and the EC50 of MetHb formation was determined using non-linear regression analysis (GraphPad Prism).

[4] = system: P. falciparum; design: method as in Vennerstrom et al., 1999; Phillips et al., 2015; details: ref Vennerstrom et al., 1999; Phillips et al., 2015; read-out: EC50, in vitro potency of other antimalarial compounds; cited from earlier work
[5] = system: P. falciparum D10 (mefloquine resistant); assay: Plasmodium falciparum growth inhibition assay, drug-resistant line D10; type: cell-based; details: D10, mefloquine resistant, means ± s.e.m, read-out: EC50 (nM), P. falciparum D10
Description: (§4) Banked blood (Saint Louis Children’s Hospital) and fresh blood [healthy donors] was washed and stored at 50% hematocrit at 4°C up to 1 month past the clinical expiration date and collection date, respectively. Parasite strains provided by the Malaria Research and Reference Reagent Resource Center (MR4) as follows: 3D7 (MRA-102); K1 (MRA-159); D10 (MRA-201); and IPC-5202 (MRA-1240). […]
as §3, with “Prism). […]” for “Prism).”
(§5) Supplemental Table 5. […] Half-maximal inhibitor concentrations (EC50s) were determined for drug resistant malaria parasites and compared to the sensitive 3D7 strain. The respective EC50s are calculated from each of the independent biological replicates using a non-linear regression of the log of the inhibitor concentration with data from each technical replicate normalized to maximal and minimal growth using the software package GraphPad Prism. […]
(§6) means ± s.e.m calculated from three biological replicates.

[6] = system: luciferase-expressing P. berghei ANKA parasites; assay: In vivo efficacy against blood stage parasite burden (luciferase imaging); design: species or system Swiss-Webster mice; details: i.p. daily for five days; 30mg/kg POM-HEX, 5mg/kg POM-SF
Description: as §1

[7] = system: P. falciparum IPC-5202 (chloroquine and artemisinin resistant); assay: Plasmodium falciparum growth inhibition assay, drug-resistant line IPC-5202; type: cell-based; details: chloroquine and artemisinin resistant, means ± s.e.m, read-out: EC50 (nM), P. falciparum IPC-5202
Description: as §4
as §3, with “Prism). […]” for “Prism).”
as §5, §6

[8] = system: P. falciparum K1 (chloroquine and sulfadoxine-pyrimethamine resistant); assay: Plasmodium falciparum growth inhibition assay, drug-resistant line K1; type: cell-based; details: K1, chloroquine and sulfadoxine-pyrimethamine resistant, means ± s.e.m, read-out: EC50 (nM), P. falciparum K1
Description: as §4
as §3, with “Prism). […]” for “Prism).”
as §5, §6

[9] = P. falciparum growth, with pyruvate, read-out: Parasite EC50 + pyruvate (Supplemental Table 4)
[10] = P. falciparum growth, without pyruvate, 500 = highest concentration tested, read-out: Parasite EC50 - pyruvate (Supplemental Table 4)
[11] = with pyruvate, read-out: MetHb EC50 + pyruvate (Supplemental Table 4)
[12] = without pyruvate, read-out: MetHb EC50 - pyruvate (Supplemental Table 4)

| SMILES | S.I. + pyruvate (Supplemental Table 4) [2] | S.I. - pyruvate (Supplemental Table 4) [2] | EC50 [2, 9] [nM] | EC50 [2, 10] [nM] | S.I. Fold Change (Supplemental Table 4) [2] | EC50 [3, 11] [µM] | EC50 [3, 12] [µM] | also measured |
| --- | --- | --- | --- | --- | --- | --- | --- | --- |
| O=CC[C@@H](O)[C@H](O)[C@H](O)CO [Compound 2-DG, 2-deoxyglucose, reference compound] |  |  |  |  |  |  |  | effect on clinical score, overall survival, cerebral malaria (in words) ([1]; POM-HEX 30 mg/kg): did not improve; parasitemia ([1]; d4, blood smear Giemsa, treated from day 2, HEX 100 mg/kg, control 7.8±3.3%): 13.3±3.9% |
| O=C1C(P(=O)(O)O)CCN1O (centres unmarked) [DeoxySF-2312] | 16.7 | 6.3 | 30000 ± 9700 | 80000 ± 2000 | 2.7 | > 500 | > 500 | selectivity for antiparasitic activity over erythrocyte toxicity (in words) ([2]; parasite growth versus MetHb formation): notably selective |
| CC(=O)ON1CCCC(P(=O)(OCOC(=O)C(C)(C)C)OCOC(=O)C(C)(C)C)C1=O (centres unmarked) [SDR23] | 1.6 | 0.6 | 1600 ± 110 | 2100 ± 250 | 2.5 | 2.5 ± 0.34 | 1.3 ± 0.07 |  |
| CC1(P(=O)(O)O)CC(O)N(O)C1=O (centres unmarked) [MethylSF-2312] | 19.2 | 3.8 | 26000 ± 2900 | 130000 ± 3500 | 5.1 | > 500 | > 500 |  |
| Cc1cc(Nc2ccc(S(F)(F)(F)(F)F)cc2)n2nc(C(C)(F)F)nc2n1 [DSM265] |  |  |  |  |  |  |  | EC50 [4]: 0.053 µM |
| COc1cc(C)c2c(Oc3cccc(C(F)(F)F)c3)c(OC)cc(NC(C)CCCN)c2n1 (centres unmarked) [tafenoquine] |  |  |  |  |  |  |  | EC50 [4]: 0.436 µM |
| O=C1C(P(=O)(O)O)CC(O)N1O (centres unmarked) [SF-2312, reference compound] | 18.5 | 2.8 | 27000 ± 2000 | 180000 ± 9300 | 6.6 | > 500 | > 500 | EC50 ([2]; asexual P. falciparum, phosphonates, read-out: half maximal effective concentrations (EC50s), parasite growth): > 15000 nM |
| CC(C)OC(=O)C(C)NP(=O)(NC(C)C(=O)OC(C)C)C1CCCN(O)C1=O (centres unmarked) [SDR4] | 6.8 | 15.6 | 73000 ± 8700 | 32000 ± 2400 | 0.4 | > 500 | > 500 |  |
| CC(C)(C)C(=O)OCOP(=O)(OCOC(=O)C(C)(C)C)C1CC(O)N(O)C1=O (centres unmarked) [POM-SF] | 1.9 | 0.1 |  |  | 13.6 |  |  | EC50 [5]: 437 ± 83 nM; EC50 ([2]; Plasmodium falciparum, 3D7, 72 h, P. falciparum growth, presence of 1mM pyruvate, mean ± s.e.m., read-out: Parasite EC50 + pyruvate): 250 ± 10 nM; EC50 ([2]; Plasmodium falciparum, 3D7, P. falciparum growth, absence of 1mM pyruvate, mean ± s.e.m., 500 = highest concentration tested, EC50 not resolved, read-out: Parasite EC50 - pyruvate): 710 ± 40 nM; EC50 ([2]; Plasmodium falciparum, 3D7, means ± s.e.m, three biological replicates, read-out: EC50 (nM), P. falciparum 3D7 (pan-sensitive)): 185 ± 18 nM; T.I. Fold change ([2]; change in T.I. with versus without 1mM pyruvate): 13.6; T.I. + pyruvate ([2]; therapeutic index = [EC50 for MetHb formation]/[EC50 for parasite growth inhibition], with 1mM pyruvate): 1.9; T.I. - pyruvate ([2]; therapeutic index = [EC50 for MetHb formation]/[EC50 for parasite growth inhibition], without pyruvate): 0.1; effect on parasite burden (in words) [6]: does not forestall a lethal parasite burden; EC50 [7]: 321 ± 11 nM; EC50 [8]: 361 ± 34 nM; EC50 ([3]; Homo sapiens, Erythrocyte, absence of 1mM pyruvate, mean ± s.e.m., EC50 not resolved, read-out: MetHb EC50 - pyruvate): 0.1 ± 0.002 µM; EC50 ([3]; Homo sapiens, Erythrocyte, presence of 1mM pyruvate, mean ± s.e.m., EC50 not resolved, read-out: MetHb EC50 + pyruvate): 0.48 ± 0.01 µM |
| CC(C)OC(=O)OCOP(=O)(OCOC(=O)OC(C)C)C1CCCN(O)C1=O (centres unmarked) [Compound J52] | 0.3 | 0.3 | 1600 ± 4000 | 2900 ± 400 | 1.2 | 0.49 ± 0.02 | 0.77 ± 0.04 |  |
| O=C1C(P2(=O)NCCCO2)CCCN1O (centres unmarked) [PKM J45] | 5.3 | 14.3 | 94000 ± 4700 | 35000 ± 3100 | 0.4 | > 500 | > 500 |  |
| CC(C)OC(=O)C(C)NP(=O)(Oc1ccccc1)C1CCCN(O)C1=O (centres unmarked) [SDR6] | 8.3 | 10.4 | 60000 ± 13000 | 48000 ± 2800 | 0.8 | > 500 | > 500 |  |
